How the values were obtained:
Assay in all cases: Test D
G522 SORGHUM = assay type: in vivo, Sorghum bicolor
WILLMS SOYBEANS = assay type: in vivo, Glycine max
VELVETLEAF = assay type: in vivo, Abutilon theophrasti
Experimental: The Corn and Sorghum Herbicide Test included the following species in both the preemergence and postemergence evaluations:
Postemergence plantings were grown in Sassafras sandy loam soil. Corn and soybeans were grown in separate 25 cm diameter containers. Sorghum and the seven grass weed species were grown in two 18 cm diameter containers, 4 species per container. The seven broadleaf weed species were also grown in two 18 cm diameter containers, 4 species in one container, 3 species in the second container. One additional planting of corn in an 18 cm diameter container was made. The soil surface of this additional container of corn was covered with the absorbent, perlite, before spray treatment so that test chemicals would enter the plant only via the foliage. The plants were grown 10-21 days, dependent upon the species and then sprayed postemergence with the test chemicals dissolved in a nonpytotoxic solvent.
Preemergence plantings were grown in fertilized Tama silt loam soil. These plantings are identical to those described in the postemergence section, with the exception of the corn planting having perlite covering the soil surface. These plantings were made the day of or the day before spraying the test chemicals dissolved in a nonphytotoxic solvent.
Treated plants and controls were maintained in the greenhouse for 2 to 4 weeks. Visual planting response ratings were made on a percentage scale of 0 to 100 in comparison with a control where 0=no injury, and 100=death.

FALL PANICUM = assay type: in vivo, Panicum dichotomiflorum
LARGE CRABGRASS = assay type: in vivo, Digitaria sanguinalis
GIANT FOXTAIL = assay type: in vivo, Setaria faberii
GREEN FOXTAIL = assay type: in vivo, Setaria viridis

Measured: plant response

C=C(c1ccccc1Cl)C(O)(Cn1cncn1)c1ccc(Cl)cc1Cl (stereo not drawn) [Example 33, 2-(2,4-Dichlorophenyl)-3-(2-chlorophenyl)-1-(1H-1,2,4-triazol-1-yl)-3-buten-2-ol]
0%: G522 SORGHUM; POSTEMERGENCE 0250 GM/HA | G522 SORGHUM; POSTEMERGENCE 0500 GM/HA | G522 SORGHUM; POSTEMERGENCE 1000 GM/HA | G522 SORGHUM; PREEMERGENCE 0250 GM/HA | G522 SORGHUM; PREEMERGENCE 0500 GM/HA | G522 SORGHUM; PREEMERGENCE 1000 GM/HA | WILLMS SOYBEANS; POSTEMERGENCE 0250 GM/HA | WILLMS SOYBEANS; POSTEMERGENCE 0500 GM/HA | WILLMS SOYBEANS; POSTEMERGENCE 1000 GM/HA | WILLMS SOYBEANS; PREEMERGENCE 0250 GM/HA | WILLMS SOYBEANS; PREEMERGENCE 0500 GM/HA | WILLMS SOYBEANS; PREEMERGENCE 1000 GM/HA | VELVETLEAF; POSTEMERGENCE 0250 GM/HA | VELVETLEAF; POSTEMERGENCE 0500 GM/HA | VELVETLEAF; POSTEMERGENCE 1000 GM/HA | VELVETLEAF; PREEMERGENCE 0250 GM/HA | VELVETLEAF; PREEMERGENCE 0500 GM/HA | VELVETLEAF; PREEMERGENCE 1000 GM/HA | FALL PANICUM; POSTEMERGENCE 0250 GM/HA | FALL PANICUM; POSTEMERGENCE 0500 GM/HA | FALL PANICUM; POSTEMERGENCE 1000 GM/HA | FALL PANICUM; PREEMERGENCE 0250 GM/HA | FALL PANICUM; PREEMERGENCE 0500 GM/HA | FALL PANICUM; PREEMERGENCE 1000 GM/HA | LARGE CRABGRASS; POSTEMERGENCE 0250 GM/HA | LARGE CRABGRASS; POSTEMERGENCE 0500 GM/HA | LARGE CRABGRASS; POSTEMERGENCE 1000 GM/HA | LARGE CRABGRASS; PREEMERGENCE 0250 GM/HA | LARGE CRABGRASS; PREEMERGENCE 0500 GM/HA | LARGE CRABGRASS; PREEMERGENCE 1000 GM/HA | GIANT FOXTAIL; POSTEMERGENCE 0250 GM/HA | GIANT FOXTAIL; POSTEMERGENCE 0500 GM/HA | GIANT FOXTAIL; POSTEMERGENCE 1000 GM/HA | GIANT FOXTAIL; PREEMERGENCE 0250 GM/HA | GIANT FOXTAIL; PREEMERGENCE 0500 GM/HA | GIANT FOXTAIL; PREEMERGENCE 1000 GM/HA | GREEN FOXTAIL; POSTEMERGENCE 0250 GM/HA | GREEN FOXTAIL; POSTEMERGENCE 0500 GM/HA | GREEN FOXTAIL; POSTEMERGENCE 1000 GM/HA | GREEN FOXTAIL; PREEMERGENCE 0250 GM/HA | GREEN FOXTAIL; PREEMERGENCE 0500 GM/HA | GREEN FOXTAIL; PREEMERGENCE 1000 GM/HA

— patent US4965280A, “Antifungal carbinols” (E. I. Du Pont de Nemours and Company, priority 1989, dated 1990)
